The nature of data set [1]: Solubility of the lowest energy crystalline form of Drug A in water. As to conditions: lowest energy crystalline form presently known. It counts as physicochemical. The method, then: Drug A is an MTP inhibitor intended for the treatment of obesity. The solubility of the lowest energy crystalline form of Drug A presently known in water is less than 0.6 μg/ml. Drug A is nonionizable, and has a cLog P of about 7.8. These characteristics contribute to its water insoluble nature.

Data set [2] in a line: In vitro dissolution test in model fasted duodenal solution (MFDS). It is filed as physicochemical. As to conditions: MTC 500 μg/mL; for AUC / Drug A Concentration: MFDS pH 6.5, 37° C. The procedure: Samples of Example 1 and Control C1 were added to respective microcentrifuge tubes in duplicate. For these tests, a sufficient amount of material was added so that the maximum theoretical concentration of drug (MTC) would have been 500 μg/mL, if all of the drug had dissolved. The tubes were placed in a 37° C. temperature-controlled chamber, and 1.8 mL model fasted duodenal solution, or “MFDS” was added to each respective tube. The MFDS consisted of 1.8 mL PBS containing 0.5 wt % sodium taurocholic acid and 1-palmitoyl-2-oleyl-sn-glycero-3-phosphocholine (NaTC/POPC, with a 4/1 weight ratio) at pH 6.5 and adjusted to 290 mOsm/kg with NaCl:KCl (20.4:1 wt/wt). The samples were quickly mixed using a vortex mixer for about 60 seconds. The samples were centrifuged at 13,000 G at 37° C. for 1 minute. The resulting supernatant solution was then sampled and diluted 1:6 (by volume) with methanol and then analyzed by high-performance liquid chromatography (HPLC) using a Phenomenex Luna, phenyl-hexyl 5 μm column with a mobile phase consisting of 70:30 (vol:vol) acetonitrile: water at a flow rate of 1 ml/min. Drug concentration was measured using UV absorbance at 241 nm. The contents of each respective tube were mixed on the vortex mixer and allowed to stand undisturbed at 37° C. until the next sample was taken. […]
The concentrations of drug obtained in these samples were used to determine the maximum dissolved drug concentration at 90 minutes (MDC90) and the area under the dissolved drug concentration versus time curve (AUC90) during the initial ninety minutes.
For each test, dispersions were added to microcentrifuge tubes in duplicate. For these tests, a sufficient amount of material was added so that the maximum theoretical concentration (MTC) would have been 500 μg/mL, if all of the drug had dissolved. The tubes were placed in a 37° C. temperature-controlled chamber, and 1.8 mL PBS containing 0.5 wt % sodium taurocholic acid and 1-palmitoyl-2-oleyl-sn-glycero-3-phosphocholine (NaTC/POPC, with a 4/1 weight ratio) at pH 6.5 and 290 mOsm/kg (model fasted duodenal solution, “MFDS”) was added to each respective tube. The samples were quickly mixed using a vortex mixer for about 60 seconds. The samples were centrifuged at 13,000 G at 37° C. for 1 minute. The resulting supernatant solution was then sampled and diluted 1:6 (by volume) with methanol and then analyzed by HPLC as described above. The contents of each respective tube were mixed on the vortex mixer and allowed to stand undisturbed at 37° C. until the next sample was taken. […]
The concentrations of drug obtained in these samples were used to determine the MDC90 and the AUC90 during the initial ninety minutes.

We go through 2 compounds from patent US20080293801A1, “Solid Amorphous Dispersions of An Mtp Inhibitor For Treatment of Obesity” (PFizer Inc., priority 2003, published 2008).

Several values for one entry are separate records, joined by “and”; a condition that tells them apart may be missing. Equal values may be shown once. Marks after values point to notes of the source that are not given here. Some results are limits rather than exact numbers.

Consider `CN(Cc1ccccc1)C(=O)[C@@H](NC(=O)c1cc2cc(NC(=O)c3ccccc3-c3ccc(C(F)(F)F)cc3)ccc2n1C)c1ccccc1` [Drug A, (S)—N-{2-[benzyl(methyl)amino]-2-oxo-1-phenylethyl}-1-methyl-5-[4′-(trifluoromethyl)[1,1′-biphenyl]-2-carboxamido]-1H-indole-2-carboxamide], for which the solubility in data set [1] is < 0.6 µg/mL.
Regarding `CN(Cc1ccccc1)C(=O)[C@@H](NC(=O)c1cc2cc(NC(=O)c3ccccc3-c3ccc(C(F)(F)F)cc3)ccc2n1C)c1ccccc1` [Example C1], in data set [2] (area under dissolved drug concentration vs time curve, initial 90 minutes, MFDS), the AUC90 is 170 µg·min/mL and 200 µg·min/mL. In addition, the MDC90 in data set [2] (maximum dissolved drug concentration, initial 90 minutes, MFDS) is 3.1 µg/mL and 3 µg/mL. Also, the AUC in data set [2] (time 0 min) was 0 µg·min/mL; in data set [2] (time 4 min), 0 µg·min/mL; in data set [2] (time 40 min) it was 93 µg·min/mL and 100 µg·min/mL; in data set [2] (time 90 min) it was 170 µg·min/mL and 200 µg·min/mL; in data set [2] (time 1200 min), 800 µg·min/mL. Moreover, the “Drug A Concentration” value in data set [2] (time 0 min) is 0 µg/mL; in data set [2] (time 4 min), 0.0* μg/mL and 0 μg/mL; in data set [2] (time 10 min), 2.6 µg/mL and 3 µg/mL; in data set [2] (time 20 min), 3.1 µg/mL and 3 µg/mL; in data set [2] (time 40 min) it was 2.6 µg/mL and 3 µg/mL; in data set [2] (time 1200 min), 0.8 µg/mL.
